Measured values reported in patent publication US10653680B2, “Treatment of impulsivity-related disorders” (OXFORD UNIVERSITY INNOVATION LIMITED, priority 2016, dated 2020).

Columns and labels:
[1] = test system: healthy participants; assay: Cambridge Gambling Task (CGT); format: in vivo, human
Experimental: Twenty healthy participants (7 females, 13 males; mean age 25.1 years, range 20-38 years; mean BMI 22.7 kg/m^2, range 18.7-30.0 kg/m^2) were included in the study after giving full informed written consent.
Ebselen capsules and identical matching placebo (containing microcrystalline cellulose) were purchased from Shasun Pharmaceuticals Ltd. Participants were tested twice (seven days apart) receiving on one occasion ebselen and, on the other, placebo in a randomised, double-blind, cross-over design. Ebselen was administered in 6×200 mg capsules in three doses given over two days. The order of receiving either the ebselen or the placebo was randomised.
On the day before cognitive testing, participants took the first dose at 1 pm and the second dose at 10 pm. The final dose was taken around 3 hrs prior to cognitive testing. Participants were sent text message reminders a few minutes before they were due to take medication, and were asked to confirm receipt of the messages. The cognitive tasks were carried out immediately after a magnetic resonance spectroscopy study.
The Cambridge Gambling Task (CGT) from the Cambridge Neuropsychological Test Automated Battery (CANTAB, version 3.0.0, Cambridge Cognition Ltd., Cambridge, UK) (Rogers et al.; Neuropsychopharmacology, 1999, 20, 322-333; Clark et al.; Brain, 2008, 131, 1311-1322) assesses decision-making and risk-taking behaviour outside a learning context. In each trial, participants are shown ten boxes at the top of the screen, with some boxes being red and some being blue. The ratio of red to blue boxes varies from 9:1; 8:2; 7:3; 6:4; 5:5 and vice versa in a pseudo-random order.
Participants are informed that a yellow token is hidden inside one of the boxes and asked to indicate the colour box in which the token is most likely to be hidden, by pressing the colour (RED or BLUE) in a response panel at the bottom of the screen. Following their response, the participants indicate confidence in their selection by betting a proportion of points they are allocated (starting with 100 points). […] On each trial five bets are offered, and each bet represents a fixed percentage of the current total points score (5, 25, 50, 75 and 95%). Possible bets are presented sequentially in a box on the right of the display and participants touch the box to select the bet. If correct, the bet value is added to their total points on the left of the panel, and if incorrect, it is subtracted from the total points.
Participants are asked to accumulate as many points as possible. […] Participants perform the task in four blocks of two separate conditions, ascending and descending bet value (the condition order is counterbalanced across participants). In the ascending condition, bets increase at 2.5 s time intervals from 5% to 95% until participants make their selection. This means that if a participant bets at the first value presented, then they bet only 5% of their total points, and if they wait for the highest value, they bet 95% of their total points. In the descending condition bets start from 95% and decrease to 5%. Low bets in the ascend condition and high bets in the descend condition reveal an impulsive betting strategy, while high bets in both conditions reveal a risk taking or reward seeking strategy.
From the first stage of the task (selecting the likely colour of the box in which the token is hidden), the outcome measures are deliberation time and quality of decision making. Deliberation time is the mean latency from presentation of coloured boxes to participant selection. Quality of decision making refers to the proportion of trials on which the more likely outcome is chosen. From the gamble stage, the outcome measures are risk taking, risk adjustment and delay aversion. Risk taking refers to the mean proportion of current points that the subject stakes on each gamble when the more likely outcome is selected, and can be regarded as an index of reward seeking or loss aversion. […]

[2] = WO 2012/107735; cited from earlier work
[3] = test system: rats; assay: 5 Choice Serial Reaction Time Task (5-CSRTT); format: in vivo, rats (males; Long Evans)
Experimental: Testing was carried out in Vancouver (Canada) using rats (males; Long Evans from Charles River) which were given at least two weeks to acclimatise to the animal facility. They were housed in pairs on a 12 hour reverse light-dark cycle (lights off at 7 am). In the second week of acclimatisation, rats were handled briefly each day. […] For each task, there was then a habituation session to the operant boxes before training began.
Ebselen, cocaine and 2,5-dimethoxy-4-iodoamphetamine (DOI) were obtained from Sigma Aldrich, and MDL 100,907 was obtained from Tocris. Ebselen was dissolved in 0.5M DMSO and made up to injection volume (8 ml/kg) using 4% cyclodextrin. Cocaine and DOI were dissolved in 0.9% saline. MDL 100,907 was dissolved in 0.9% saline and the pH was adjusted to 6.25 using 1M NaOH and 0.1M HCl.
All data for the cognitive tasks are presented as mean+SEM change from baseline: • performance on drug day−performance on the previous day
The data were analysed with repeated measures ANOVA with dose as a within-subject factor. Where appropriate, post-hoc analysis was performed using Student's paired t-test.
This test was performed as described previously (Bari et al., Nature Protocols, 2008, 3(5), 759-767; Robbins, Psychopharmacology, 2002, 163(3), 362-380).
Fourteen rats were trained to respond to brief visual cues presented in one of five target areas with an inter-trial interval of 5 seconds. On the day of testing in the presence of ebselen, the inter-trial interval was lengthened to 7 seconds to cause a reliable increase in premature responding.
Ebselen and vehicle were administered by intraperitoneal (i.p.) injection 1 hour prior to testing. Three doses of ebselen (2, 5 or 10 mg/kg) were studied, administration being in a random order that was determined by a Latin square design. Rats were run five days a week, with the treatment day falling on day three.
Following ebselen, 3 doses of MDL 100,907 (0.01, 0.03 and 0.1 mg/kg, i.p.) were tested in a Latin square design with the first injection occurring one week after the final injection of ebselen. MDL 100,907 is a selective 5-HT2A antagonist. Rats were similarly run five days a week with injections falling on the third day, and the lengthened inter-trial interval was used only on the drug-administration day.
The Latin square design (for both the 5-CSRTT and rGT experiments) was counterbalanced, based on performance in the last training day of each task. A one week wash-out period was given between drug-administration days. A baseline session was performed both the day before and the day after treatment to ensure stable off-drug performance.

O=c1c2ccccc2[se]n1-c1ccccc1 [Ebselen, 2-phenyl-1,2-benzisoselenazol-3(2H)-one]
effect on deliberation time ([1]; ebselen vs placebo): no significant effects | effect on quality of decision making ([1]; ebselen vs placebo): no significant effects | effect on reward seeking/risk taking ([1]; ebselen vs placebo): increase | effect on risk adjustment ([1]; ebselen vs placebo): no significant effects | effect on delay aversion ([1]; ebselen vs placebo, irrespective of probability of favourable outcome and token ratio): significant decrease | Delay aversion (%), Mean ± SEM ([1]; human, ebselen 6x200 mg in three doses over two days, final dose around 3 hrs before testing, vs placebo p = 0.010): 9.0 ± 2.14% | Reward seeking (%), Mean ± SEM ([1]; human, same regimen, vs placebo p = 0.046): 63.9 ± 1.45% | Risk adjustment, Mean ± SEM ([1]; human, same regimen, vs placebo p = 0.107): 2.1 ± 0.18 | Deliberation time (ms), Mean ± SEM ([1]; human, same regimen, vs placebo p = 0.131): 1408 ± 78 ms | Quality of decision making (%), Mean ± SEM ([1]; human, same regimen, vs placebo p = 0.155): 99.3 ± 0.3% | transfer across the blood/brain barrier [2]: capable of transferring across the blood/brain barrier | premature responding ([3]; ebselen 2 mg/kg i.p. vs vehicle, p=0.158): No effect | premature responding ([3]; ebselen 5 mg/kg i.p. vs vehicle, p=0.011): statistically significant decreases | premature responding ([3]; ebselen 10 mg/kg i.p. vs vehicle, p=0.032): statistically significant decreases | premature responding ([3]; ebselen 2, 5, 10 mg/kg i.p. 1 hour prior to testing, vs vehicle, ANOVA p=0.049, inter-trial interval 7 s): decreased premature responding in a dose-dependent manner | any other measures of the 5-CSRTT ([3]; ebselen 2, 5, 10 mg/kg i.p., p=0.192-0.805): No effects
